Laboratory results from US7439363B2, “Substituted indazoly(indoly)maleimide derivatives as kinase inhibitors” (Janssen Parmaceutica N.V., priority 2003, dated 2008).

What was measured:
Format in all cases: biochemical
PKC isoform γ = PKC isoform γ (Homo sapiens, UniProt P05129); assay: Protein Kinase C histone-based assay, PKC gamma; conditions: histone III substrate, 30 μM ATP
Method: (§1) Protein Kinase C Histone-Based Assay
(§2) Compounds were evaluated for PKC selectivity using histone III as the substrate. The PKC isoforms α, β-II or γ were added to a reaction mixture that contained 20 mM HEPES, (pH 7.4), 940 μM CaCl2, 10 mM MgCl2, 1 mM EGTA. 100 μg/mL phosphatidylserine, 20 μg/mL diacylglycerol, 30 μM ATP, 1 μCi (^33P)ATP and 200 μg/mL histone III. The reaction was incubated for 10 min at 30° C. Reactions were terminated by TCA precipitation and spotting on Whatman P81 filters. Filters were washed in 75 mM phosphoric acid and the radioactivity quantified by liquid scintillation counting.

[1] = molecular target: T1, recombinant rabbit GSK-3β protein (Oryctolagus cuniculus, UniProt G1T8E2); assay: Glycogen Synthase Kinase-3 assay (PPI-2 phosphorylation); conditions: for IC50: PPI-2 substrate, 33P-ATP
T1 construct: purchased New England Biolabs
Method: Glycogen Synthase Kinase-3 Assay
Compounds were tested for the ability to inhibit recombinant rabbit GSK-3β protein using the following protocol. The test compound was added to a reaction mixture containing Protein phosphatase inhibitor-2 (PPI-2) (Calbiochem) (45 ng), rabbit GSK-3β protein (New England Biolabs) (0.75 units) and ^33P-ATP (1 μCi) in 50 mM Tris-HCl (pH 8.0), 10 mM MgCl2, 0.1% BSA, 1 mM DTT and 100 μM Sodium Vanadate. The mixture was reacted for 90 minutes at 30° C. to allow phosphorylation of the PPI-2 protein and then the protein in the reaction was precipitated using 10% TCA. The precipitated protein was collected on filter plates (MultiScreen-DV/Millipore), which were subsequently washed. Finally, the radioactivity was quantified using a TopCount Scintillation Counter (Packard). […] Staurosporine or Valproate, known inhibitors of GSK-3β, were used as a positive control for screening.

PKC isoform β-II = PKC isoform β-II (Homo sapiens, UniProt P05771); assay: Protein Kinase C histone-based assay, PKC beta II; conditions: histone III substrate, 30 μM ATP
Method: as §1, §2

PKC isoform α = PKC isoform α (Homo sapiens, UniProt P17252); assay: Protein Kinase C histone-based assay, PKC alpha; conditions: histone III substrate, 30 μM ATP
Method: as §1, §2

T1 sequence (G1T8E2 1-432): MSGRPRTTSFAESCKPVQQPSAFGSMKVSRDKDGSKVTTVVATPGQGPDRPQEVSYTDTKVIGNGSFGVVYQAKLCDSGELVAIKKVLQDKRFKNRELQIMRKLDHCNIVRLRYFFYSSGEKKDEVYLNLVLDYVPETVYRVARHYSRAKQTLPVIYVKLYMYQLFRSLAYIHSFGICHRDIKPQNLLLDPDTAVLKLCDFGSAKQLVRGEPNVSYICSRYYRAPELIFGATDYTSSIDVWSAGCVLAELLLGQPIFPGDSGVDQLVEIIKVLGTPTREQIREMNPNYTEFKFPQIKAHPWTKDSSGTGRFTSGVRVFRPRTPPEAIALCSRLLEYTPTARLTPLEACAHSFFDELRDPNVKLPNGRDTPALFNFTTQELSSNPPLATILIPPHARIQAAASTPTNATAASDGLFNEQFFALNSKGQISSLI
PKC isoform β-II, sequence (P05771 1-673 isoform P05771-2): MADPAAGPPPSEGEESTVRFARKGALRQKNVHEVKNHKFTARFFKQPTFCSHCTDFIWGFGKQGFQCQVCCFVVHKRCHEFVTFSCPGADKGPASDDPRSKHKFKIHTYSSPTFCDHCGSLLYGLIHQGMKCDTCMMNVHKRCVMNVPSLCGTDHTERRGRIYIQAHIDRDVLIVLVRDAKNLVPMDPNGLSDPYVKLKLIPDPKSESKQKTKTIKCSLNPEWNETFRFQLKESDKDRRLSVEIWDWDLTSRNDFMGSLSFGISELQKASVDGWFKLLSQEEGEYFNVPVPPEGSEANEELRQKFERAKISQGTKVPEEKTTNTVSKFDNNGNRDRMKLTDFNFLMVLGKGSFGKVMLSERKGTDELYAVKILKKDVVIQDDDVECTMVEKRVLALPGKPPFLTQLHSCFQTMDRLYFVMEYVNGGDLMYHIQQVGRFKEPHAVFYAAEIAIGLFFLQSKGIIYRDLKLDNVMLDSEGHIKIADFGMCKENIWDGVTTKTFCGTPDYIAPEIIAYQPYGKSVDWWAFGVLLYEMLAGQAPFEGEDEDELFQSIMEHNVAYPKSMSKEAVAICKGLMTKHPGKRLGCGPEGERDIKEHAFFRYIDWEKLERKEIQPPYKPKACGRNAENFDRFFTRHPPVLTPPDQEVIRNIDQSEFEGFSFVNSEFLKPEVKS

SMILES	IC50 (PKC isoform γ) [µM]	IC50 [1] [µM]	IC50 (PKC isoform β-II) [µM]	IC50 (PKC isoform α) [µM]	GSK-3β Assay Activity, % @ 1 μM ([1]; @ 1 μM) [% @ 1 μM]
O=C1NC(=O)C(c2nn(CCCn3ncnn3)c3ccccc23)=C1c1cn(-c2ccc3ccccc3c2)c2ccccc12 [Compound 5, 3-(1-Naphthalen-2-yl-1H-indole-3-yl)-4-[1-(3-tetrazol-2-yl-propyl)-1H-indazol-3-yl]-pyrrole-2,5-dione]	1.7	0.776	0.025	0.542	
O=C1NC(=O)C(c2nn(CCCn3cnnn3)c3ccccc23)=C1c1cn(-c2ccc3ccccc3c2)c2ccccc12 [Compound 6, 3-(1-Naphthalen-2-yl-1H-indol-3-yl)-4-[1-(3-tetrazol-1-yl-propyl)-1H-indazol-3-yl]pyrrole-2,5-dione]	1.11		0.022	0.326	29
O=C1NC(=O)C(c2nn(CCCn3ncnn3)c3ccccc23)=C1c1cn(-c2cccnc2)c2ccccc12 [Compound 7, 3-(1-Pyridin-3-yl-1H-indol-3-yl)-4-[1-(3-tetrazol-2-yl-propyl)-1H-indazole-3-yl]-pyrrole-2,5-dione]	1.45	0.027	0.044	0.451	
O=C1NC(=O)C(c2nn(CCCn3cnnn3)c3ccccc23)=C1c1cn(-c2cccnc2)c2ccccc12 [Compound 8, 3-(1-Pyridin-3-yl-1H-indol-3-yl)-4-[1-(3-tetrazol-1-yl-propyl)-1H-indazol-3-yl]-pyrrole-2,5-dione]	4.3	0.034	0.052	1.04	
Cn1cc(C2=C(c3nn(CCc4nnn[nH]4)c4ccccc34)C(=O)NC2=O)c2cc(Cl)ccc21 [Compound 11, 3-(5-Chloro-1-methyl-1H-indol-3-yl)-4-{1-[2-(1H-tetrazol-5-yl)-ethyl]-1H-indazol-3-yl)-pyrrole-2,5-dione]	1.93	0.005	0.123	1.36	
O=C1NC(=O)C(c2nn(CCc3nnn[nH]3)c3ccccc23)=C1c1cn(-c2cccnc2)c2ccc(Cl)cc12 [Compound 12]	0.226	0.107	0.069	0.554	

Continued, values first:

IC50 (PKC isoform γ) [µM]	IC50 [1] [µM]	IC50 (PKC isoform β-II) [µM]	IC50 (PKC isoform α) [µM]	GSK-3β Assay Activity, % @ 1 μM ([1]; @ 1 μM) [% @ 1 μM]	SMILES
0.476	0.004	0.015	0.567		Cn1cc(C2=C(c3nn(CCCn4ccnc4)c4ccccc34)C(=O)NC2=O)c2cc(Cl)ccc21 [Compound 1, 3-(5-Chloro-1-methyl-1H-indol-3-yl)-4-[1-(3-imidazol-1-yl-propyl)-1H-indazol-3-yl]-pyrrole-2,5-dione]
0.395	0.003	0.046	1.21		Cn1cc(C2=C(c3nn(CCCn4ccnn4)c4ccccc34)C(=O)NC2=O)c2cc(Cl)ccc21 [Compound 2, 3-(5-Chloro-1-methyl-1H-indole-3-yl)-4-[1-(3-[1,2,3]triazole-1-yl-propyl)-1H-indzol-3-yl]-pyrrole-2,5-dione]
1.01	0.004	0.045	2.35		Cn1cc(C2=C(c3nn(CCCn4ncnn4)c4ccccc34)C(=O)NC2=O)c2cc(Cl)ccc21 [Compound 3, 3-(5-Chloro-1-methyl-1H-indol-3-yl)-4-[1-(3-tetrazol-2-yl-propyl)-1H-indazol-3-yl]pyrrole-2,5-dione]
0.544	0.004	0.035	0.505		Cn1cc(C2=C(c3nn(CCCn4cnnn4)c4ccccc34)C(=O)NC2=O)c2cc(Cl)ccc21 [Compound 4, 3-(5-Chloro-1-methyl-1H-indol-3-yl)-4-[1-(3-tetrazol-1-yl-propyl)-1H-indazol-3-yl]-pyrrole-2,5-dione]
1.42	0.005	0.041	2.98		Cc1nnn(CCCn2nc(C3=C(c4cn(C)c5ccc(Cl)cc45)C(=O)NC3=O)c3ccccc32)n1 [Compound 9]
0.602	0.005	0.009	0.424		Cc1nnnn1CCCn1nc(C2=C(c3cn(C)c4ccc(Cl)cc34)C(=O)NC2=O)c2ccccc21 [Compound 10]
